Columns and labels:
Type in all cases: cell-based
ABCB1 = target: T1, ABCB1 (Homo sapiens, UniProt P08183); test: calcein AM fluorescence accumulation assay, ABCB1-overexpressing A2780/ADR cells; conditions: for activity against ABCB1 in preliminary screening: screened at 10 µM, active = at least 20% (+SEM) of effect of 10 µM compound 2
T1 construct: ABCB1-overexpressing A2780/ADR (30,000 cells/well); host or cells: A2780/ADR
Experimental: (§1) Compounds 16–25 were screened at 10 µM in calcein AM (ABCB1 and ABCC1) as well as pheophorbide A (ABCG2) fluorescence accumulation assays using either ABCB1-overexpressing A2780/ADR, ABCC1-overexpressing H69AR, or ABCG2-overexpressing MDCK II BCRP cells, respectively, as reported earlier, [43], [45], [67], [101]. Calcein AM and pheophorbide A are substrates of ABCB1 and ABCC1 as well as ABCG2, respectively, which passively diffuse into the used cells and become extruded by the corresponding ABC transporter. Inhibition of the respective transporter results in the accumulation of these substrates. Calcein AM is subsequently cleaved by intracellular esterases to the fluorescent calcein, while pheophorbide A is already fluorescent. Intracellular fluorescence was determined via microplate reader (calcein AM; ABCB1 and ABCC1) and flow cytometry (pheophorbide A; ABCG2), respectively. Compounds 2 (Fig. 1) and 26–27 (Fig. 5) were used as reference inhibitors against ABCB1, ABCC1, and ABCG2, respectively, as reported before, [101]. Fig. 7 provides the screening results for ABCB1 (A), ABCC1 (B), and ABCG2 (C).
(§2) The ABCB1-overexpressing A2780/ADR cells were delivered by European Collection of Animal Cell Culture (ECACC, no. 93112520) and cultivated using RPMI-1640 medium (PAN-Biotech GmbH, Aidenbach, Germany) complemented with fetal bovine serum (FCS; 10%; PAN-Biotech GmbH, Aidenbach, Germany), streptomycin (50 µg/µL; PAN-Biotech GmbH, Aidenbach, Germany), penicillin G (50 U/mL; PAN-Biotech GmbH, Aidenbach, Germany), as well as L-glutamine (2 mM; PAN-Biotech GmbH, Aidenbach, Germany). The ABCC1-overexpressing H69AR cells were provided by American Type Culture Collection (ATCC CRL-11351), which were cultured with RPMI-1640 medium to which FCS (20%), streptomycin (50 µg/µL), penicillin G (50 U/mL), as well as L-glutamine (2 mM) were added. Dr. A. Schinkel (The Netherlands Cancer Institute, Amsterdam, The Netherlands) generously provided the ABCG2-overexpressing MDCK II BCRP cells, which were cultivated in Dulbecco's modified eagle medium (DMEM; Sigma Life Science, Steinheim, Germany) complemented with FCS (10%), streptomycin (50 µg/µL), penicillin G (50 U/mL), as well as L-glutamine (2 mM). The cell lines were stored in a mixture of 90% cell culture medium and 10% DMSO under liquid nitrogen, while cultivation was performed at 37 °C under 5% CO2-humidified atmosphere. After a confluence of 90% was reached, the cells were harvested using a 0.05%/0.02% trypsin-EDTA solution (PAN-Biotech GmbH, Aidenbach, Germany). […]
(§3) The inhibitory activity against ABCB1 and ABCC1 was evaluated in a calcein AM assay as reported earlier, [67], [101]. […] The incubation period at 37 °C under 5% CO2-humidified atmosphere lasted 30 min before 20 µL of a 3.125 µM calcein AM was added to each well, subsequently followed by measurement of fluorescence increase at an excitation wavelength of 485 nm and an emission wave length of 520 nm in 60 sec intervals for 1 h in either POLARstar and FLUOstar Optima microplate readers (BMG Labtech, software versions 2.00R2/2.20 and 4.11-0; Offenburg, Germany).

ABCC1 = target: T2, ABCC1 (Homo sapiens, UniProt P33527); test: calcein AM fluorescence accumulation assay, ABCC1-overexpressing H69AR cells; conditions: for activity against ABCC1 in preliminary screening: screened at 10 µM, active = at least 20% (+SEM) of effect of 10 µM compound 26
T2 construct: ABCC1-overexpressing H69AR (60,000 cells/well) cells were added; host or cells: H69AR
Experimental: as §1
as §2, with “mM).” for “mM). The cell lines were stored in a mixture of 90% cell culture medium and 10% DMSO under liquid nitrogen, while cultivation was performed at 37 °C under 5% CO2-humidified atmosphere. After a confluence of 90% was reached, the cells were harvested using a 0.05%/0.02% trypsin-EDTA solution (PAN-Biotech GmbH, Aidenbach, Germany).”
as §3

ABCG2 = target: T3, ABCG2 (Homo sapiens, UniProt Q9UNQ0); test: pheophorbide A fluorescence accumulation assay, ABCG2-overexpressing MDCK II BCRP cells
T3 construct: host or cells: MDCK II BCRP
T3 sequence (Q9UNQ0 1-655): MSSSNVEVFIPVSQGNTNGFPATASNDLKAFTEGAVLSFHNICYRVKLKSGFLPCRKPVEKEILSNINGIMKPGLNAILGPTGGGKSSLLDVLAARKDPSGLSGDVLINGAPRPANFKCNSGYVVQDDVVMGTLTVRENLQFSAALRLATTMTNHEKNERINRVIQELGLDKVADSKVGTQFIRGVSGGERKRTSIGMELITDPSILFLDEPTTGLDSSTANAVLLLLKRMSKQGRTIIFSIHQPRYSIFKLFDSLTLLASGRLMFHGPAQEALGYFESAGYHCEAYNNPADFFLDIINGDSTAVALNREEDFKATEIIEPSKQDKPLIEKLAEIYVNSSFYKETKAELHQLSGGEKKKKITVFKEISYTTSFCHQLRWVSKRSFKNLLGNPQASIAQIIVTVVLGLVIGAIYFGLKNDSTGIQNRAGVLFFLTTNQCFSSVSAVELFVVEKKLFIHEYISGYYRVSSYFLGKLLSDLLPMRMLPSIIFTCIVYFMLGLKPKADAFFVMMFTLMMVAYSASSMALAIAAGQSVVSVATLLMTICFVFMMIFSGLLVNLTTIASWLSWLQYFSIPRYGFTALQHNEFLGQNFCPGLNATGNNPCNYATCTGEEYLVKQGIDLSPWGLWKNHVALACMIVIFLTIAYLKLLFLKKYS
Experimental: as §1, with “Fig. 7 provides the screening results for ABCB1 (A), ABCC1 (B), and ABCG2 (C).” left out
The inhibitory activity against ABCG2 was evaluated in a pheophorbide A assay as reported earlier, [67]. […] The effect values of compounds 16–25 were measured via flow cytometry [Guava easyCyte^TM HT, (Merck Millipore, Billerica, MA, USA; excitation: 488 nm; emission: 695/50 nm)] and compared to the effect value of 10 µM of compound 27.

T2 sequence (P33527 whole entry): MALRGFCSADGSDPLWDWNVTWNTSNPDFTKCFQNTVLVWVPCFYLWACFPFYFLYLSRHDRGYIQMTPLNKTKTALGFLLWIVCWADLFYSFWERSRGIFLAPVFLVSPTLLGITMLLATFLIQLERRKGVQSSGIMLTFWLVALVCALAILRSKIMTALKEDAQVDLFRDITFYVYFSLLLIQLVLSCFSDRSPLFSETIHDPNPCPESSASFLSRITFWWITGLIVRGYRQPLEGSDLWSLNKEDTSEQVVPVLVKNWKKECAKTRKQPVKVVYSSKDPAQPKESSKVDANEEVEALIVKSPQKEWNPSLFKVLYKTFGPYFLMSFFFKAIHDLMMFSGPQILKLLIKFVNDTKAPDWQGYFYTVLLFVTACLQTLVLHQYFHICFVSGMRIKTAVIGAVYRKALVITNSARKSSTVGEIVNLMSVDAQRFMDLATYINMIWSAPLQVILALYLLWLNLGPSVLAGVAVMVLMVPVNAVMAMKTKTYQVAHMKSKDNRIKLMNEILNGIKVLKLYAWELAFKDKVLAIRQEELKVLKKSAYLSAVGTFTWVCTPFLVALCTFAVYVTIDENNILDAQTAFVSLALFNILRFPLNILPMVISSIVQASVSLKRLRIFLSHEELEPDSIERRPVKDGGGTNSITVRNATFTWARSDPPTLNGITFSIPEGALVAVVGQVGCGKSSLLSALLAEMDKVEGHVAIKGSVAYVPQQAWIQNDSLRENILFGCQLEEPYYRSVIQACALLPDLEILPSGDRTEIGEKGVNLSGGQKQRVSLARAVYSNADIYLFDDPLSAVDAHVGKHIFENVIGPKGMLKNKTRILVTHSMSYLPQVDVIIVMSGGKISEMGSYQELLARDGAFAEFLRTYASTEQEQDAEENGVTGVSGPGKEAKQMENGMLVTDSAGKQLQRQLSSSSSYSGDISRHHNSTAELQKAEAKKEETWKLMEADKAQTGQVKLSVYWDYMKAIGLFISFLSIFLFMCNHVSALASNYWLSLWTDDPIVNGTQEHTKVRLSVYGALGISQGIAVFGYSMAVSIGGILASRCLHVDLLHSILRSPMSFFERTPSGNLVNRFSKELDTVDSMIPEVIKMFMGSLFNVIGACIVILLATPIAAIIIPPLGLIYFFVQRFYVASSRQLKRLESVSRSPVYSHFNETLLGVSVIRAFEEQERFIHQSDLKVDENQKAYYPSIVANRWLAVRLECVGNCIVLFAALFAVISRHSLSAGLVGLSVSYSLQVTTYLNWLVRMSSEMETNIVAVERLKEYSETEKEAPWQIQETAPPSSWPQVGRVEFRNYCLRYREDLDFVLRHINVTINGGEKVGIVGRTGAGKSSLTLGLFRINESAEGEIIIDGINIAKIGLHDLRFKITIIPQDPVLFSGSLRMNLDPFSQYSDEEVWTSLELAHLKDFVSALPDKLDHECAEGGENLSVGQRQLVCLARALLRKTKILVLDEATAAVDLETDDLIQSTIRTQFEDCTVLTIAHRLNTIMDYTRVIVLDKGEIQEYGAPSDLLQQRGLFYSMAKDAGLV
T1 sequence (P08183 whole entry): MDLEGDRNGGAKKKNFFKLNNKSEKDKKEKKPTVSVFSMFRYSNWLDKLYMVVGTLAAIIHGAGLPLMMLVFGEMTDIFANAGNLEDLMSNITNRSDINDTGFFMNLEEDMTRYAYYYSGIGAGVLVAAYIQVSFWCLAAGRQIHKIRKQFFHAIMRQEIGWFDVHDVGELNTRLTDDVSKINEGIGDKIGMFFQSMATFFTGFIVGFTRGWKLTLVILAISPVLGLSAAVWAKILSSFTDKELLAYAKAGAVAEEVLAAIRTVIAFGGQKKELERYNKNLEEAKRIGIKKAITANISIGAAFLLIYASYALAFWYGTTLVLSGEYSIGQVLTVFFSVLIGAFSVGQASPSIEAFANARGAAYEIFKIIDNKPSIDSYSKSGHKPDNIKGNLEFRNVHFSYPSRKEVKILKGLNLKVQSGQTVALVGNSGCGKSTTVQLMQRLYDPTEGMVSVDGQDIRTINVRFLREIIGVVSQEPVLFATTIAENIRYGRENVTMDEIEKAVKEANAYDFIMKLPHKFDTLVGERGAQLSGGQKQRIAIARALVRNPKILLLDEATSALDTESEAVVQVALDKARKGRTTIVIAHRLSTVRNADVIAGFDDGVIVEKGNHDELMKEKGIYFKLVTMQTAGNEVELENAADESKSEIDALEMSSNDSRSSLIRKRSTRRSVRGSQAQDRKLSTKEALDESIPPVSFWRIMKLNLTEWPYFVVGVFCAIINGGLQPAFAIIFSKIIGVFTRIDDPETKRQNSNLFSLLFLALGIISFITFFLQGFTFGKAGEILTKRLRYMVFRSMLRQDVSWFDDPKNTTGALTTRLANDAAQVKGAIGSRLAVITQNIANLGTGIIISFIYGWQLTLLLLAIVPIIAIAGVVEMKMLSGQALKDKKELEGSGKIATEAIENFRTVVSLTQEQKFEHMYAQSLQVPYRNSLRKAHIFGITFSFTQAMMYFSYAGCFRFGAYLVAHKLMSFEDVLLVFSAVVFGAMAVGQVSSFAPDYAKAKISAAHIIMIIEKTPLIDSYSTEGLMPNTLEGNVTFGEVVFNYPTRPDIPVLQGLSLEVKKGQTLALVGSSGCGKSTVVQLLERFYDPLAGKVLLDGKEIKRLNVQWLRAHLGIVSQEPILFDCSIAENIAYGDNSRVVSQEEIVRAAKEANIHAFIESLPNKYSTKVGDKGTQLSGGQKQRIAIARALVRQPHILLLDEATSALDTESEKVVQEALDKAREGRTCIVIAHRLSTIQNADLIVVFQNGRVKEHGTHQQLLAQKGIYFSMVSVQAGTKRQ

Row | SMILES | activity against ABCB1 in preliminary screening (ABCB1) | activity against ABCC1 in preliminary screening (ABCC1) | further results
1 | Cc1onc(-c2ccccc2)c1-c1nnc(CN2CCCC2c2ccc3c(c2)OCCCO3)o1 (centres unmarked) [compound 16, 2-((2-(3,4-dihydro-2H-benzo[b][1,4]dioxepin-7-yl)pyrrolidin-1-yl)methyl)-5-(5-methyl-3-phenyl-isoxazol-4-yl)-1,3,4-oxadiazole] | activities against ABCB1 | inhibited ABCC1 | –
2 | O=C(NC1CCC(OC(=O)c2cncn2-c2ccc(F)cc2)CC1)c1cncn1-c1ccc(F)cc1 (centres unmarked) [compound 17, 4-(1-(4-fluorophenyl)-1H-imidazole-5-carboxamido)cyclohexyl 1-(4-fluorophenyl)-1H-imidazole-5-carboxylate] | activities against ABCB1 | – | –
3 | O=C(CN1CCN(C(=O)Cn2cnc3scc(-c4cccs4)c3c2=O)CC1)N1CCCCCC1 [compound 18, 3-(2-(4-(2-(azepan-1-yl)-2-oxoethyl)piperazin-1-yl)-2-oxoethyl)-5-(thiophen-2-yl)thieno[2,3-d]pyrimidin-4(3H)-one] | – | inhibited ABCC1 | –
4 | O=C(c1cccn1-c1nnc(N2CCCC2)s1)N1CCN(Cc2ccc3c(c2)OCO3)CC1 [compound 19, (4-(benzo[d][1,3]dioxol-5-ylmethyl)piperazin-1-yl)(1-(5-(pyrrolidin-1-yl)-1,3,4-thiadiazol-2-yl)-1H-pyrrol-2-yl)methanone] | activities against ABCB1 | – | –
5 | C1=CC2=NC3N4CN(CCCN5CCOCC5)CNC4=NC(c4ccccn4)N3C2C=C1 (centres unmarked) [compound 20, 4-(3-(6-(pyridin-2-yl)-4,6,7a,12a-tetrahydro-1H-benzo[4,5]imidazo[1,2-a][1,3,5]triazino[1,2-c][1,3,5]triazin-2(3H)-yl)propyl)morpholine] | did inhibit neither of the evaluated transporters | did inhibit neither of the evaluated transporters | activity against ABCG2 in preliminary screening (ABCG2; screened at 10 µM, active = at least 20% (+SEM) of effect of 10 µM compound 27): did inhibit neither of the evaluated transporters
6 | Cc1nc(N2CCN(C(=O)C(c3ccccc3)c3ccccc3)CC2)cc(-n2ccnc2)n1 [compound 23, 1-(4-(6-(1H-imidazol-1-yl)-2-methylpyrimidin-4-yl)piperazin-1-yl)-2,2-diphenylethan-1-one] | – | – | IC50 (ABCB1; calcein AM assay, A2780/ADR cells, 100% = 10 µM reference inhibitor 2, read-out: IC50 against ABCB1): 4.01 µM; IC50 (ABCC1; calcein AM assay, H69AR cells, 100% = 10 µM reference inhibitor 26, read-out: IC50 against ABCC1): 14.8 µM; IC50 (ABCG2; pheophorbide A assay, MDCK II BCRP cells, 100% = 10 µM reference inhibitor 27, read-out: IC50 against ABCG2): 9.27 µM

— article PMC8193046, “Scaffold fragmentation and substructure hopping reveal potential, robustness, and limits of computer-aided pattern analysis (C@PA)” (Computational and Structural Biotechnology Journal, 2021)
